Patent publication US4544512A, “Tridecyloxy- or tetradecyloxy-propane derivatives” (Takeda Chemical Industries, Ltd., priority 1980, dated 1985)
Values after ≈ are worked out from the molar mass of the structure shown.

How the values were obtained:
Tetrahymena pyriformis W = experiment: Antiprotozoal activity, broth dilution method (MIC); assay type: cell-based; conditions: 28° C., 44-48 hours, read-out: MIC against Tetrahymena pyriformis W
Procedure: Referring to the antiprotozoal activity given in Table 4, the microbial growth inhibiting activity (MIC) of each compound of this invention was assayed by the broth dilution method by incubating Tetrahymena pyriformis W strain as the test organism at 28° C. for 44-48 hours, using a test culture medium comprising 20 g of Tryptose peptine (Difco), 1 g of yeast extract, 2 g of glucose. 1,000 ml of distilled water and 10 ml of 1M phosphate buffer (pH 7.0).

[1] = system: Cryptococcus unigtullatas; experiment: Antimycotic activity, paper disk inhibition zone; assay type: cell-based; conditions: 48 h, concentration of 3 mg/ml, paper disk 8 mm, 37° C., 2 days, read-out: Inhibition zone diameters
Procedure: Referring to the antimycotic activity presented in Table 5, Cryptococcus unigtullatas and others were used as the test microbes, a paper disk (8 mm in diameter) was immersed in an aqueous solution of each test compound having a concentration of 3 mg/ml, air dried and placed on an agar medium, then incubation was conducted at 37° C. for 2 days, and the diameter (mm) of the inhibition zone was measured.

For `CCCCCCCCCCCCCCOCC(COP(=O)(O)OCCN)OC` (stereo not drawn) [drawing 24 R = C14 H29], the MIC (Tetrahymena pyriformis W) was 2 µg/mL (≈ 4.7 µM).
`CCCCCCCCCCCCCCCCCCOCC(COP(=O)(O)OCCN)OC` (stereo not drawn) [drawing 24 R = C18 H37] gave an MIC (Tetrahymena pyriformis W) of 4 µg/mL (≈ 8.3 µM).
With `CCCCCCCCCCCCOCCCOP(=O)([O-])OCC[N+](C)(C)C` [drawing 25 R = C12 H25] the MIC (Tetrahymena pyriformis W) was 1 µg/mL (≈ 2.44 µM).
Work on `CCCCCCCCCCCCCOCCCOP(=O)([O-])OCC[N+](C)(C)C` [drawing 25 R = C13 H27] yielded an MIC (Tetrahymena pyriformis W) of 0.2 µg/mL (≈ 0.472 µM).
In the case of `CCCCCCCCCCCCCCOCCCOP(=O)([O-])OCC[N+](C)(C)C` [drawing 25 R = C14 H29], the MIC (Tetrahymena pyriformis W) is reported as 0.2 µg/mL (≈ 0.457 µM).
Work on `CCCCCCCCCCCCCCCCCCOCCCOP(=O)([O-])OCC[N+](C)(C)C` [drawing 25 R = C18 H37] yielded an MIC (Tetrahymena pyriformis W) of 2 to 4 µg/mL (≈ 4.05 to 8.1 µM).
Work on `CCCCCCCCCCCCOCCCOP(=O)(O)OCCN` [drawing 26 R = C12 H25] yielded an MIC (Tetrahymena pyriformis W) of 2 µg/mL (≈ 5.44 µM).
Molecule `CCCCCCCCCCCCCOCCCOP(=O)(O)OCCN` [drawing 26 R = C13 H27] has an MIC (Tetrahymena pyriformis W) of 0.4 µg/mL (≈ 1.05 µM).
In the case of `CCCCCCCCCCCCCCOCCCOP(=O)(O)OCCN` [drawing 26 R = C14 H29], the MIC (Tetrahymena pyriformis W) is reported as 0.4 µg/mL (≈ 1.01 µM).
`CCCCCCCCCCCCCCCCCCOCCCOP(=O)(O)OCCN` [drawing 26 R = C18 H37] showed an MIC (Tetrahymena pyriformis W) of 4 µg/mL (≈ 8.86 µM).
Molecule `CCCCCCCCCCCCOCC(COP(=O)([O-])OCC[N+](C)(C)C)OC` (stereo not drawn) [drawing 27 R = C12 H25] has a zone of inhibition at 3000 µg/mL [1] of 15 mm.
With `CCCCCCCCCCCCCOCC(COP(=O)([O-])OCC[N+](C)(C)C)OC` (stereo not drawn) [drawing 27 R = C13 H27] the zone of inhibition at 3000 µg/mL [1] was 19 mm.
`CCCCCCCCCCCCCCOCC(COP(=O)([O-])OCC[N+](C)(C)C)OC` (stereo not drawn) [drawing 27 R = C14 H29] showed a zone of inhibition at 3000 µg/mL [1] of 22 mm.
`CCCCCCCCCCCCCCCCCCOCC(COP(=O)([O-])OCC[N+](C)(C)C)OC` (stereo not drawn) [drawing 27 R = C18 H37] was tested, and the zone of inhibition at 3000 µg/mL [1] was 18 mm.
With `CCCCCCCCCCCCOCC(COP(=O)(O)OCCN)OC` (stereo not drawn) [drawing 28 R = C12 H25] the zone of inhibition at 3000 µg/mL [1] was < 5 mm.
Molecule `CCCCCCCCCCCCCCOCC(COP(=O)(O)OCCN)OC` (stereo not drawn) [drawing 28 R = C14 H29] has a zone of inhibition at 3000 µg/mL [1] of 13.5 mm.
In the case of `CCCCCCCCCCCCCCCCCCOCC(COP(=O)(O)OCCN)OC` (stereo not drawn) [drawing 28 R = C18 H37], the zone of inhibition at 3000 µg/mL [1] is reported as < 5 mm.
Molecule `CCCCCCCCCCCCOCCCOP(=O)([O-])OCC[N+](C)(C)C` [drawing 29 R = C12 H25] has a zone of inhibition at 3000 µg/mL [1] of 19 mm.
With `CCCCCCCCCCCCCOCCCOP(=O)([O-])OCC[N+](C)(C)C` [drawing 29 R = C13 H27] the zone of inhibition at 3000 µg/mL [1] was 20 mm.
Work on `CCCCCCCCCCCCCCOCCCOP(=O)([O-])OCC[N+](C)(C)C` [drawing 29 R = C14 H29] yielded a zone of inhibition at 3000 µg/mL [1] of 21 mm.
`CCCCCCCCCCCCCCCCCCOCCCOP(=O)([O-])OCC[N+](C)(C)C` [drawing 29 R = C18 H37] gave a zone of inhibition at 3000 µg/mL [1] of 17 mm.
